According to patent EP0364584A1, “ANTIDOTE FOR ORGANIC PHOSPHORUS COMPOUND POISONING” (priority 1988, dated 1989):
Read-outs that look alike come from different tables or passages of the source.

Tests used:
[1] = target: T1, Butyrylcholinesterase des Rattengehirns (Rattus norvegicus, UniProt Q9JKC1); assay: Histochemical study of butyrylcholinesterase activity in rat brain; format: in vivo, Ratten
T1 construct: from tissue; host or cells: rat brain sections (glia, capillaries) after in vivo dosing
Excerpt: (§1) Nach den histochemischen Methoden wurde der Einfluss des erfindungsgemässen Arzneimittels auf die Aktivität der Azetyl- und Buty rylcholinesterase des Rattengehirns untersucht und es wurde gezeigt, dass dieser von der Dosis des Arzneimittels und der Einführungszeit abhängt. […] Die Fermenthemmung wird bis 2 Stunden lang beobachtet, nachher folgt eine unbedeutende Aktivierung der Azetylcholinesterase, die bis 24 Stunden aufrechterhalten bleibt.
Es muss hervorgehoben werden, dass die beobachteten Veränderungen der Aktivität des Ferments von keinem deutlich ausgeprägten Charakter sind.

[2] = Acute toxicity, single administration, cats; conditions: cat, in vivo, im; Katzen, intramuskulär; read-out: LD50 (mg/kg) und deren zuverlässige Grenzen P = 0,05
Excerpt: (§2) Die Toxizität des erfindungsgemässen Arzneimittels bei der einmaligen Einführung (die akute Toxizität) wurde an geschlechtsreifen Tieren (an Mäusen, Ratten, Katzen, Hunden) bestimmt. Die Analyse der experimentellen Angaben für Mäuse und Ratten wurde nach der Methode der Probit-Analyse nach Litchfield und Wilcoxon, und für Hunde und Katzen nach der Methode der Anreicherung der Frequenz nach Behrens durchgeführt.
(§3) Die Toxizitätsparameter LD50 wurden für Mause bei der intraperitonealen und subkutanen Einführung, für Ratten bei der subkutanen, intramuskulären und enteralen Einführung, für Katzen bei der intramuskulären Einführung und für Hunde bei der subkutanen Einführung bestimmt.

[3] = system: Kranken mit akuten peroralen Vergiftungen mit verschiedenen phosphororganischen Insektiziden; assay: Clinical study in patients with acute oral poisoning by organophosphorus insecticides; format: in vivo, Menschen
Excerpt: Das erfindungsgemässe Arzneimittel wurde in der Klinik an Kranken mit akuten peroralen Vergiftungen mit verschiedenen phosphororganischen Insektiziden untersucht. Insgesamt wurden 183 Menschen behandelt, die in die Klinik gelangten. Daraus befanden sich 26 Menschen in einer leichten, 48 Kranke - in einer mässigen und 75 Kranke in einer schweren Vergiftungsstufe. Das Alter der Geschädigten schwankte von 15 bis 76 Jahren. Die Zeit des Behandlungsbeginns betrug I bis 12 stunden nach der Einnahme des Insektizids und in 28 Fällen wurde die Behandlung vor der Hospitalisierung begonnen.
Die therapeutische Effektivität des erfindungsgemässen Arzneimittels wurde mit der ähnlichen Wirkung des wirksamsten bekannten Präparats TMB-4 verglichen (insgesamt 50 Menschen) .
Das erfindungsgemässe Arzneimittel wurde in Kombination mit Atropin neben aktiven Methoden der Detoxikation ausgenutzt, die die Giftentfernung aus dem Organismus bezweckten und das Durchwaschen des Magens, die Verordnung von Abführungsmitteln, Siphon- und Abführungsklystieren, die Beschleunigung der Diurese, aktive symptomatische und Erhaltungstherapie, allgemein stärkenden Behandlung, Massnahmen zur Korrektion der Störungen des säurig-alkalischen und wässrigen und Elektrolytzustands einschliessen. […]

[4] = target: T2, Azetylcholinesterase des menschlichen Bluts (Homo sapiens, UniProt P22303); assay: Reactivation in vitro of erythrocyte cholinesterase inhibited by organophosphorus compounds (potentiometric titration); format: biochemical; conditions: reactivator 1.10^-4 M01/1, 25°C, pH 7,5
T2 construct: Cholinesterase des Grundgerüstes der Erythrozyten des menschlichen Bluts; from tissue; host or cells: human erythrocyte stroma (ghosts)

Versuchstiere = assay: Prolonged administration to test animals (blood, urine); format: in vivo
Excerpt: Nur zu einer späteren Beobachtungsperiode (4 bis 9 Tage) wurde eine unbedeutende Erhöhung der Gesamtleukozytenzahl nachgewiesen. Am 3. Tag trat auch eine geringe Aktivierung der Blutcholinesterase auf, in den nachfolgenden Beobachtungstagen (4 bis 9 Tage) überstieg jedoch die Aktivität des Ferments das Ausgangsniveau nicht.
Die morpholigischen Untersuchungen der inneren Organe der Versuchstiere legten keine pathologischen Veränderungen im Vergleich zur Kontrolle an den Tag.

[5] = Acute toxicity, single administration, rats; conditions: rat, in vivo, Ratten, read-out: LD50 (mg/kg) und deren zuverlässige Grenzen P = 0,05
[6] = system: kardiovaskuläre System und die Atmung; assay: Effect on cardiovascular system, respiration and muscle; format: in vivo
[7] = Acute toxicity, single administration, dogs; conditions: dog, in vivo, sc; Hunde, subkutan; read-out: LD50 (mg/kg) und deren zuverlässige Grenzen P = 0,05
Excerpt: as §2, §3

[8] = Acute toxicity, single administration, mice; conditions: mouse, in vivo, Mäuse, read-out: LD50 (mg/kg) und deren zuverlässige Grenzen P = 0,05
Excerpt: as §2, §3

[9] = system: Gehirn der Tiere (Ratten); assay: Morphological and histochemical examination of the brain; format: in vivo; conditions: Dosen 5, 20 und 50 mg/kg; no haemorrhages
Procedure: Der Grad deren Ausgeprägtheit wird etwas höher und länger in den Gehirnstrukturen (3 Tage) bei einer Dosis des erfindungsgemässen Arzneimittels von 50 mg/kg aufrechterhalten, als bei Dosen von 5 und 20 mg/kg. Die Kapillarhyperämie wird durch keine Blutergüsse und Störungen des argyrophilen Gestells der Hirnblutgefässe begleitet. Die morphologische und histochemische Untersuchung des Rattengehirns, denen das erfindungsgemässe Arzneimittel in Dosen von 5, 20 und 50 mg/kg eingeführt wurde, gestattet, die erhaltenen Veränderungen als funktionelle einzuschätzen (die Schwankung der Aktivität der Azetylcholinesterase und der Butyrylcholinesterase, die […] Hyperämie), die von einer deutlichen Neurotropie des Arzneimittels zeugen.

[10] = target: T3, Azetylcholinesterase des Rattengehirns (Rattus norvegicus, UniProt P37136); assay: Histochemical study of acetylcholinesterase activity in rat brain; format: in vivo, Ratten
T3 construct: Azetyl- und Buty rylcholinesterase des Rattengehirns; from tissue; host or cells: rat brain sections after in vivo dosing
Excerpt: as §1

T2 sequence (P22303 other isoform, or with tags, fused parts or gaps): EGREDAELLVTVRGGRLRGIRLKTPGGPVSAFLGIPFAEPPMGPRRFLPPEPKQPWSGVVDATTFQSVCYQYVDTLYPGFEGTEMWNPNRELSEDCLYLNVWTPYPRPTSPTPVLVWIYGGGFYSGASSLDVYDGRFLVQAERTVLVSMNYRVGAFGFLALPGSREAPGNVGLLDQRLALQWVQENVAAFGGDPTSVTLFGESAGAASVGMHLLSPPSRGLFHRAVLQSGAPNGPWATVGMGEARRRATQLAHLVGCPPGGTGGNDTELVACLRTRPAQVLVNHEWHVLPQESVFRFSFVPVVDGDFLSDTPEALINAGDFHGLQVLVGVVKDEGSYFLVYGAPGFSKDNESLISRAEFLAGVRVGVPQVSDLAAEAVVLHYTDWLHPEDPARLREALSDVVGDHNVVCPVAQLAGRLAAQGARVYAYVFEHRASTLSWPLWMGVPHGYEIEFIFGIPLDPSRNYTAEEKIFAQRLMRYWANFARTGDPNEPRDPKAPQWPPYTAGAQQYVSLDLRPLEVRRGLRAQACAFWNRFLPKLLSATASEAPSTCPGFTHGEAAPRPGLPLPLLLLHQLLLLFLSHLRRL
T3 sequence (P37136 32-614): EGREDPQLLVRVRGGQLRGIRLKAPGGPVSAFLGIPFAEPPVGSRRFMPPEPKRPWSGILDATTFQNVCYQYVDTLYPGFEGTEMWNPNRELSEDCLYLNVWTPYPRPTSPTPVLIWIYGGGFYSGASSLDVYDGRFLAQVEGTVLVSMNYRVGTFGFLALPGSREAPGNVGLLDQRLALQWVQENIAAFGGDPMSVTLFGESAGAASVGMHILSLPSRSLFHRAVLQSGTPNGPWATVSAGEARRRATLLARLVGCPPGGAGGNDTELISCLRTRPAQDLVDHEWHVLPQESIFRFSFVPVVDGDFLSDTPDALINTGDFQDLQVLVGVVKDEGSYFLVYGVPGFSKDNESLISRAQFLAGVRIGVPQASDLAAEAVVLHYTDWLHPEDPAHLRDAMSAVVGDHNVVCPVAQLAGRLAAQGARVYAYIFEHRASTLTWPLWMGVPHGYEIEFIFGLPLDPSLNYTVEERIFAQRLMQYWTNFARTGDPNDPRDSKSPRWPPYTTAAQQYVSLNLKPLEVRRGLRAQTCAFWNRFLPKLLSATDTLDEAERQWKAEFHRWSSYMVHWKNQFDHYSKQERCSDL
T1 sequence (Q9JKC1 24-597): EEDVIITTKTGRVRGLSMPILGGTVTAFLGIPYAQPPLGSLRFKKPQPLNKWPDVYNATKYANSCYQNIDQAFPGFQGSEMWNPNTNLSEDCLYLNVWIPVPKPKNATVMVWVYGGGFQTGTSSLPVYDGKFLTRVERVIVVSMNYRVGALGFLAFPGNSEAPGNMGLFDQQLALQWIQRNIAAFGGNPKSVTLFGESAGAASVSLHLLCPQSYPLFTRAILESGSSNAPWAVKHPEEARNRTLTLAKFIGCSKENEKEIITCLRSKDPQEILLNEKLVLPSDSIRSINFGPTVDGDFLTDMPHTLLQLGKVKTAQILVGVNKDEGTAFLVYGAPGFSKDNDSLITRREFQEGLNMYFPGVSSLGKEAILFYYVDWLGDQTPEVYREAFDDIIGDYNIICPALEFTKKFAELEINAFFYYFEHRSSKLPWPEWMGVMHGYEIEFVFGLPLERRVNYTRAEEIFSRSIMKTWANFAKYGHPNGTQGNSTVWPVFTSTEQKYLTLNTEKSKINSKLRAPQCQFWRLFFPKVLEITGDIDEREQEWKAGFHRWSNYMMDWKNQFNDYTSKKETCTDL

C=CC[n+]1ccccc1C=NO [das erfindungsgemässe Arzneimittel, N-Allyl-2-pyridinaldoxiinbromid]
Aktivität der Butyrylcholinesterase in den Kapillaren aller Bildungen des Gehirns ([1]; bis 2 Tage lang, dose dependent, more marked at 50 mg/kg): unbedeutende Aktivierung des Ferments
Aktivität der Butyrylcholinesterase in den Nervenkittzellen des Gehirns ([1]; in allen untersuchten Konzentrationen): die Aktivität der Butyrylcholinesterase in den Nervenkittzellen des Gehirns nicht
LD50 [2]: 126 mg/kg
Nebenerscheinungen und Kontraindikationen ([3]; Einzeldosis 0,075 g, Kurdosis 0,4 bis 1,6 g): keine Nebenerscheinungen und Kontraindikationen
Kennziffer der Funktion der Leber und der Stoffwechselprozesse ([3]; Eiweissfraktion, Bilirubin, Transaminasenaktivität, Blutzucker, Elektrolyt- und Gaswechsel): zu deren Normalisierung beiträgt
activity at 100 µM ([4]; 0.5 h, pH 7, inhibited with O,O-Dimethyl-(2,2,2-trichlor-1-oxyäthyl) phosphonat, 0,5 h, read-out: Aktivität der Azetylcholinesterase in % (Reaktivationszeit in Stunden) 0,5): 53.6%
activity at 100 µM ([4]; 0.5 h, pH 7, inhibited with O,O-Dimethyl-S-(1,2-dikarbäthoxyäthyl)-dithiophosphat, 0,5 h, read-out: Aktivität der Azetylcholinesterase in % (Reaktivationszeit in Stunden) 0,5): 48.1%
activity at 100 µM ([4]; 1 h, pH 7, inhibited with O,O-Dimethyl-(2,2,2-trichlor-1-oxyäthyl) phosphonat, 1 h, read-out: Aktivität der Azetylcholinesterase in % (Reaktivationszeit in Stunden) 1): 72.2%
activity at 100 µM ([4]; 1 h, pH 7, inhibited with O,O-Dimethyl-S-(1,2-dikarbäthoxyäthyl)-dithiophosphat, 1 h, read-out: Aktivität der Azetylcholinesterase in % (Reaktivationszeit in Stunden) 1): 75%
activity at 100 µM ([4]; 2 h, pH 7, inhibited with O,O-Dimethyl-(2,2,2-trichlor-1-oxyäthyl) phosphonat, 2 h, read-out: Aktivität der Azetylcholinesterase in % (Reaktivationszeit in Stunden) 2): 72.3%
activity at 100 µM ([4]; 2 h, pH 7, inhibited with O,O-Dimethyl-S-(1,2-dikarbäthoxyäthyl)-dithiophosphat, 2 h, read-out: Aktivität der Azetylcholinesterase in % (Reaktivationszeit in Stunden) 2): 78.1%
Einfluss auf den Bestand des peripheren Bluts (Versuchstiere; dauernde Anwendung, slight rise of leukocytes at 4 bis 9 Tage): keinen merklichen Einfluss
Harnbestand (Versuchstiere; längere Einführung): veränderte nicht den Harnbestand
LD50 ([5]; ip, intraperitoneal): 135 mg/kg
LD50 ([5]; po, enteral): 260 mg/kg
LD50 ([5]; sc, subkutan): 200 mg/kg
myotrope Wirkung ([6]; in vivo): keine myotrope Wirkung
arterieller Blutdruck ([6]; intravenöse Einführung (12 bis 15 mg/kg)): setzte unbedeutend für eine kürzere Zeit den arteriellen Blutdruck herab
Einfluss auf das kardiovaskuläre System und die Atmung ([6]; subkutane Einführung in hohen Dosen (10 und 20 mg/kg)): keinen Einfluss
LD50 [7]: 112 mg/kg
LD50 ([8]; ip, intraperitoneal): 64 mg/kg
LD50 ([8]; sc, subkutan): 115 mg/kg
Histochemische Untersuchungen des Gehirns [9]: allgemeine unbedeutende Kapillarhyperämie
Einfluss auf die Aktivität der Azetyl- und Butyrylcholinesterase des Rattengehirns ([10]; Dosis 5 mg/kg, histochemical): keine Abweichung der Fermentaktivität von der Norm
Einfluss auf die Aktivität der Azetylcholinesterase ([10]; Dosis 20 mg/kg, except white matter of hemispheres and Formatio reticularis neurons (inhibition 30 min bis 2 Stunden)): verändert es auch im wesentlichen die Aktivität der Azetylcholinesterase nicht
Einfluss auf die Aktivität der Azetylcholinesterase ([10]; Dosis 50 mg/kg, several brain structures, inhibition bis 2 Stunden, then slight activation bis 24 Stunden): deutlicher ausgeprägte Veränderungen der Azetylcholinesteraseaktivität
Aktivität der Azetylcholinesterase in den Neuronen der Grosshirnrinde ([10]; Dosis 20 und 50 mg/kg): keine Veränderungen der Aktivität der Azetylcholinesterase festgestellt
